Laboratory results as given in ChEMBL document CHEMBL1154657, “Heterobiaryl purine derivatives as potent antiproliferative agents: inhibitors of cyclin dependent kinases. Part II” (Bioorg Med Chem Lett, 2009).

Key:
[1] = Growth inhibition of human HeLaS3 cells; assay type: functional; settings: HeLa S3
[2] = molecular target: Cyclin-dependent kinase 2/cyclin E (Homo sapiens, UniProt P24941); assay: Inhibition of Cdk2/cyclinE; assay type: protein-complex assay
[3] = molecular target: Cyclin-dependent kinase 2/cyclin A (Homo sapiens, UniProt P24941); assay: Inhibition of recombinant Cdk2/cyclinA; assay type: protein-complex assay

IC50 [2] [nM]	IC50 [3] [nM]	SMILES	GI50 [1] [nM]
100	200	CC(C)n1cnc2c(NCc3ccc(-c4cccnc4)s3)nc(N[C@H]3CC[C@H](N)CC3)nc21	200
–	–	CC[C@H](CO)Nc1nc(NCc2ccccc2)c2ncn(C(C)C)c2n1 [SELICICLIB]	20000
400	500	CC(C)n1cnc2c(NCc3ccc(-c4ccccc4)cn3)nc(N[C@H]3CC[C@H](N)CC3)nc21	500
40	80	CC(C)n1cnc2c(NCc3ccc(-c4cccc(F)c4)nc3)nc(N[C@H]3CC[C@H](N)CC3)nc21	16
44	1500	CC(C)n1cnc2c(NCc3ccc(-c4ccccn4)s3)nc(N[C@H]3CC[C@H](N)CC3)nc21	270
100	300	COc1cccc(-c2ccc(CNc3nc(N[C@H]4CC[C@H](N)CC4)nc4c3ncn4C(C)C)s2)c1	160
80	400	CC(C)n1cnc2c(NCc3ccc(-c4ccccc4F)s3)nc(N[C@H]3CC[C@H](N)CC3)nc21	300
90	250	CC(C)n1cnc2c(NCc3ccc(-c4cccc(F)c4)s3)nc(N[C@H]3CC[C@H](N)CC3)nc21	190
30	90	CC(C)n1cnc2c(NCc3ccc(-c4ccccn4)nc3)nc(N[C@H]3CC[C@H](N)CC3)nc21	310
70	300	CC(C)n1cnc2c(NCc3ccc(-c4cccnc4)cc3)nc(N[C@H]3CC[C@H](N)CC3)nc21	140
150	300	CC(C)n1cnc2c(NCc3coc(-c4ccccc4)c3)nc(N[C@H]3CC[C@H](N)CC3)nc21	330
300	400	CC(C)n1cnc2c(NCc3ccc(-c4ccc(Cl)s4)cc3)nc(N[C@H]3CC[C@H](N)CC3)nc21	380
50	70	CC(C)n1cnc2c(NCc3ccc(-n4cccn4)nc3)nc(N[C@H]3CC[C@H](N)CC3)nc21	20
200	600	CC(C)n1cnc2c(NCc3ccc(-c4ccoc4)s3)nc(N[C@H]3CC[C@H](N)CC3)nc21	2000
200	700	Cc1cccc(-c2ccc(CNc3nc(N[C@H]4CC[C@H](N)CC4)nc4c3ncn4C(C)C)s2)c1	200
200	400	CC(C)n1cnc2c(NCc3ccc(-c4ccsc4)cc3)nc(N[C@H]3CC[C@H](N)CC3)nc21	40
950	140	CC(C)n1cnc2c(NCc3ccc(-n4cccn4)cc3)nc(N[C@H]3CC[C@H](N)CC3)nc21	170
200	300	CC(C)n1cnc2c(NCc3ccc(-c4ccsc4)s3)nc(N[C@H]3CC[C@H](N)CC3)nc21	150

IC50 [2] [nM]	IC50 [3] [nM]	SMILES	GI50 [1] [nM]
100	200	CC(C)n1cnc2c(NCc3ccc(-c4ccco4)s3)nc(N[C@H]3CC[C@H](N)CC3)nc21	300
85	250	CC(C)n1cnc2c(NCc3csc(-c4ccccc4)c3)nc(N[C@H]3CC[C@H](N)CC3)nc21	370
90	150	CC(C)n1cnc2c(NCc3ccc(-c4ccco4)cc3)nc(N[C@H]3CC[C@H](N)CC3)nc21	30
< 50	< 50	CC(C)n1cnc2c(NCc3cnc(-c4ccccc4)s3)nc(N[C@H]3CC[C@H](N)CC3)nc21	200
55	140	CC(C)n1cnc2c(NCc3ccc(-c4cccs4)s3)nc(N[C@H]3CC[C@H](N)CC3)nc21	300
300	500	CC(C)n1cnc2c(NCc3ccc(-c4ccc(F)cc4)s3)nc(N[C@H]3CC[C@H](N)CC3)nc21	390
400	700	CC(C)n1cnc2c(NCc3csc(-c4ccccc4)n3)nc(N[C@H]3CC[C@H](N)CC3)nc21	4000
200	200	CC(C)n1cnc2c(NCc3ccc(-n4cccc4)cc3)nc(N[C@H]3CC[C@H](N)CC3)nc21	20
200	500	Cc1csc(-c2ccc(CNc3nc(N[C@H]4CC[C@H](N)CC4)nc4c3ncn4C(C)C)cc2)c1	400
< 30	100	CC(C)n1cnc2c(NCc3ccc(-c4ccsc4)nc3)nc(N[C@H]3CC[C@H](N)CC3)nc21	27
100	200	CC(C)n1cnc2c(NCc3ccc(-c4ccccn4)cc3)nc(N[C@H]3CC[C@H](N)CC3)nc21	44
–	100	Cc1csc(-c2ccc(CNc3nc(N[C@H]4CC[C@H](N)CC4)nc4c3ncn4C(C)C)s2)n1	40
40	100	CC(C)n1cnc2c(NCc3ccc(-c4ccccc4)nc3)nc(N[C@H]3CC[C@H](N)CC3)nc21	71
200	600	Cc1ccc(-c2ccc(CNc3nc(N[C@H]4CC[C@H](N)CC4)nc4c3ncn4C(C)C)cc2)s1	400
100	400	CC(C)n1cnc2c(NCc3ccc(-c4ccccc4)cc3)nc(N[C@H]3CC[C@H](N)CC3)nc21	–
–	900	CC(C)n1cnc2c(NCc3ccc(-c4cccs4)nc3)nc(N[C@H]3CC[C@H](N)CC3)nc21	98
90	100	CC(C)n1cnc2c(NCc3ccc(-c4cccs4)cc3)nc(N[C@H]3CC[C@H](N)CC3)nc21	48
